# Test results taken from patent publication US20220324835A1 (Nurix Therapeutics, Inc., priority 2018, published 2022).
# Experiments:
# [1] = tested on: human T-cells with allogenic immature dendritic cells; assay: Allogenic mixed lymphocyte reaction (MLR), T-cell proliferation; format: cell-based; details: 120 h, 5 days, baseline T-cells without Cbl-b inhibitor, read-out: Proliferation, fold change over baseline
# Method: Cbl-b inhibitor effects on primary human T-cells were also evaluated in the context of an allogenic mixed lymphocyte reaction (MLR). Allogenic immature dendritic cells were generated under the following conditions. Peripheral blood mononuclear cells (PBMC) were obtained either: 1) by using Ficoll-Paque™ (GE Healthcare) for separation of peripheral blood hematopoietic cells from huffy coats of healthy human donors; or 2) directly from LeukoPak donations. […] Monocytes were cultured with 30 ng/mL of recombinant human GM-CSF and 20 ng/mL of recombinant human IL-4 for seven days to generate immature dendritic cells. Monocytes and T-cells were either isolated fresh from peripheral blood or thawed from frozen stocks. Human T-cells were isolated, labeled with CFSE and incubated with inhibitors as described above. […] Proliferation of the T-cells was evaluated by flow cytometry.
# Readouts for the allogenic mixed lymphocyte reaction were reported as fold change over baseline. Baseline for this study was the measurement obtained from total human T-cells stimulated with allogenic immature dendritic cells, wherein the T-cells were not incubated with a Cbl-b inhibitor (Table 5). Increases in proliferation greater than 2-fold over baseline were considered a positive response (Table 5).
# T-cells = assay: In vivo activity: CD25 expression on CD4+ or CD8+ T-cells of mice stimulated with anti-CD3 antibody; details: 2 μg anti-CD3 antibody, 24 hours
# Method in brief: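 C57BL/6 or BALB/c mice dosed with inhibitor (IV, IP, SC or PO, e.g. BID or TID), then stimulated with 2 μg anti-CD3 antibody. Plasma IL-2, IFNγ, TNFα at 8 h and CD25 on CD4+/CD8+ T-cells by flow cytometry at 24 h; fold change over vehicle plus anti-CD3, binned A–E.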
# primary human B cells = assay: B cell activation assay (CD69 on anti-IgM stimulated B cells); format: cell-based; details: AUC of dose response curve (10 μM to 1 nM) of CD69 MFI normalized to DMSO control
# Method in brief: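 Negatively selected PBMC-derived B cells (>95% CD20+) treated with Cbl-b inhibitors from 10 μM to 1 nM (DMSO <0.5%) and stimulated with anti-IgM for 20 h at 37° C. CD69 MFI on CD20+ IgD+ cells by flow cytometry; dose-response AUC normalized to DMSO plus 2.5 μg/mL anti-IgM-F(ab′)2, binned A-D.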
SMILES,fold induction at 3 µM [1],fold induction at 10 µM [1],CD4+ T-cell % CD25+ (T-cells; 45 mpk PO BID),CD8+ T-cell % CD25+ (T-cells; 45 mpk PO BID),CD4+ T-cell % CD25+ (T-cells; 90 mpk PO BID),CD8+ T-cell % CD25+ (T-cells; 90 mpk PO BID),CD4+ T-cell % CD25+ (T-cells; 180 mpk PO BID),CD8+ T-cell % CD25+ (T-cells; 180 mpk PO BID),CD69 MFI AUC (primary human B cells),CD4+ T-cell % CD25+ (T-cells; 135 mpk PO BID),CD8+ T-cell % CD25+ (T-cells; 135 mpk PO BID),CD4+ T-cell % CD25+ (T-cells; 90 mpk IP BID),CD8+ T-cell % CD25+ (T-cells; 90 mpk IP BID)
"Cn1cnnc1CC1(c2cccc(NC(=O)c3cc(CN4CCC5(CC5)C4)cc(C4CC4)n3)c2)COC1 [Compound 519, 4-((5-azaspiro[2.4]heptan-5-yl)methyl)-6-cyclopropyl-N-(3-(3-((4-methyl-4H-1,2,4-triazol-3-yl)methyl)oxetan-3-yl)phenyl)picolinamide]",> 3.01,> 3.01,C (C indicates 1.51-2.00),D (D indicates 1.00-1.50),A (A indicates >2.50),D (D indicates 1.00-1.50),A (A indicates >2.50),C (C indicates 1.51-2.00),D (D indicates ≥1.51),,,,
"Cc1cc(C(=O)Nc2cccc(C3(Cc4nncn4C)COC3)c2)nc(C2CC2)n1 [Compound 336, 2-cyclopropyl-6-methyl-N-(3-(3-((4-methyl-4H-1,2,4-triazol-3-yl)methyl)oxetan-3-yl)phenyl)pyrimidine-4-carboxamide]",< 2,> 3.01,D (D indicates 1.00-1.50),D (D indicates 1.00-1.50),D (D indicates 1.00-1.50),D (D indicates 1.00-1.50),C (C indicates 1.51-2.00),D (D indicates 1.00-1.50),D (D indicates ≥1.51),C (C indicates 1.51-2.00),D (D indicates 1.00-1.50),,
"C[C@H](Cc1nncn1C)c1cccc(N2Cc3c(cccc3C(F)(F)F)C2=O)c1 [Compound 255a, (R)-2-(3-(1-(4-methyl-4H-1,2,4-triazol-3-yl)propan-2-yl)phenyl)-4-(trifluoromethyl)isoindolin-1-one]",< 2,< 2,,,,,,,C (C indicates 1.01-1.50),D (D indicates 1.00-1.50),E (E indicates <1.00),B (B indicates 2.01-2.50),D (D indicates 1.00-1.50)
